Reference: patent US11420962B2, “Indene derivatives useful in treating pain and inflammation” (TARO PHARMACEUTICALS INC., priority 2018, dated 2022)
Where two headings read alike, the source gives them in different places.

Tests used:
[1] = Metabolism by human liver microsomes; assay type: in vitro ADME; settings: in the presence of NADPH; for Scoring (% of drug remaining after 60 minutes, PDR60): Table 8, 10 µM, 1 mg/mL protein
Experimental: Representative compounds of the invention (i.e., test compounds) and the positive control, 7-ethoxycoumarin, were prepared as stock solutions at 10 mM in DMSO and eventually diluted to 10 μM in the test plate, with an appropriate amount of acetonitrle and tris HCl buffer. Final DMSO and acetonitrile concentrations were […] and 0.5% respectively. NADPH was prepared in tris HCl buffer to a stock of 10 mM. A frozen aliquot of live microsomes was retrieved from the freezer (−80° C.) and thawed by placing the tube on wet ice. After thawing, the tubes were gently mixed and the required amount, transferred to tris HCl buffer. Test compounds or positive control were pre-incubated, separately, for 10 minutes, with liver microsomes (1 mg/mL protein), at 37° C., in 100 mM Tris HCl at pH 7.5. After preincubation the reaction was started by adding 1 mM NADPH (pre-equilibrated to […]) and the reaction allowed to proceed for 60 minutes. At 60 minutes, a 50 μL aliquot was removed and quenched with 200 uL of acetonitrile containing a mixture of internal standards (Tolbutamide (500 ng/mL) and Telmistartan (500 ng/mL)) and vortexed then centrifuged at 4000 rmp for 10 minutes (Eppendorf 5810R). The supernatant was transferred to a 96 well plate for LC-MS/MS analysis.
An LC-MS/MS method was devised for the test compounds and the control, using a AB Sciex API 4000 system coupled to a NEXAR™ UHPLC (Shimadzu) system. Analytes were separated on a Phenomenex Kinetex C18 column (50×2.1 mm, 5 μm) using a gradient that was appropriate for each compound, at a flow rate of 1 ml/minute, utilizing a mobile phase of 0.1% formic acid in MILLI-Q™ water (A) and 0.1% formic acid in acetonitrile (B). The MS instrument was operated in positive mode (ESI+)/negative (ESI−). The multiple reaction monitoring (MRM) transition for test and control compounds was used for the LC-MS/MS analysis. MRM transitions for control compound 7-ethoxycoumarinm were Quadropole 1: 191.0, Quadropole 3: 163.0, dwell time: 75 msec, using curtain gas settings of 5 V, ion-spray voltage of 5500 V, temperature of 50° C. and gas settings for nebulizer and auxiliary set to 30 and 40 psi, respectively. The interface heater was kept on. Entrance potential and collision cell exit potential were varied to tune for a specific compound.
Using a suitable LC-MS/MS method, the percentage of drug remaining at 60 minutes ([…]) was assessed by comparing the average analyte to internal standard area ratio at 60 minutes to the average analyte to internal standard area ratio at 0 time control, as a percentage, from a 5 to 10 μL sample injection.
According to the above assay, the representative compounds listed in Table 8 below were active in the Human liver microsome assay at […] and the % of drug remaining after 60 minutes (PDR60), in the presence of NADPH, was assessed by LC-MS/MS. Average PDR60 for the standard compound, 7-ethoxycoumarin was <=65% in the presence of NADPH. Scoring for the test compounds, in the presence of NADPH, was as follows: “A” represents a PDR^60 of 81 to 100%, “B” represents a PDR^60 of 61 to 80%, “C” represents a PDR^60 of 31 to 60% and “D” represents a PDR^60 of 0 to 30%.

Rat DRG = assay: Rat dorsal root ganglion excitability response (EFS, Ca2+ transients); assay type: cell-based
Experimental: Dorsal root ganglions (DRGs) were dissected from adult rats. The tissue was processed, and cells were seeded into call culture plates (48 center wells of one quadrant in 384-well plates) and cultured for 2 days prior to Electrical field stimulation (EFS). To visualize the neuronal excitability response, intracellular Ca^+2 transients were monitored using the Ca^+2 indicator, Ca5. Ca5 was added to the cultures 1 h prior to EFS. Representative test compounds of the invention (i.e., test compounds) and reference compound, tetracaine, were added in concentration-response format encompassing six concentrations, performed in duplicate. The highest concentration tested was typically 30 μM with 1 in 3 dilutions generating the subsequent concentrations.
Effects on DRG excitability by the test compounds and standard were evaluated using four EFS protocols as disclosed in Table 2.
Experimental results were performed using two separate sets of plates using separate test compound and standard dilutions, to provide n=2. In the first set of experiments, compounds were added 24 h prior to EFS to increase the possibility to also detect more long-term compound effects. In the second set of experiments the compounds were added directly prior to EFS. Excitability response to EFS was analyzed as the average fluorescence ratio (peak/baseline) change per well. All plates were evaluated using high content imaging equipment post-EFS, imaging the Ca5 background staining to detect any possible compound-related toxic effects.
Average response by the standard compound, tetracaine, was 4.05 μM.

[2] = Rattus norvegicus, Table 3, electrical field stimulation, Ca5 indicator, read-out: Scoring (EC50, Rat DRG excitability)

Compound | EC50 (Rat DRG; [2]) [nM] | Scoring (% of drug remaining after 60 minutes, PDR60) [1] | further results
CCOc1ccc2ccc(=O)oc2c1 [7-ethoxycoumarin, reference compound] |  |  | Average PDR60 [1]: <= 65%
CC1(C)CCC2=C1CC[C@H]([C@@]1(C)Cc3cn[nH]c3C[C@@H]1CO)[C@H]2CN [Ia-2, ((5R,6S)-5-((4R,5S)-4-(aminomethyl)-1,1-dimethyl-2,3,4,5,6,7-hexahydro-1H-inden-5-yl)-5-methyl-4,5,6,7-tetrahydro-1H-indazol-6-yl)methanol] | > 15000 | B (a PDR^60 of 61 to 80%) | 
C[C@H]1CC[C@H]2[C@H](CO)[C@@H]([C@@]3(C)Cc4cn[nH]c4C[C@@H]3CO)CC[C@]12C [Ia-5, ((5R,6S)-5-((1S,3aS,4S,5S,7aR)-4-(hydroxymethyl)-1,7a-dimethyloctahydro-1H-inden-5-yl)-5-methyl-4,5,6,7-tetrahydro-1H-indazol-6-yl)methanol] |  | D (a PDR^60 of 0 to 30%) | 
C=C1CC[C@H]2[C@H](CN)[C@@H]([C@@]3(C)Cc4cn(-c5ccccn5)nc4C[C@@H]3CO)CC[C@]12C [Ia-11, ((5R,6S)-5-((3aS,4R,5S,7aS)-4-(aminomethyl)-7a-methyl-1-methyleneoctahydro-1H-inden-5-yl)-5-methyl-2-(pyridin-2-yl)-4,5,6,7-tetrahydro-2H-indazol-6-yl)methanol] | 2000 to 6000 | B (a PDR^60 of 61 to 80%) | 
C=C1CC[C@H]2[C@H](CN)[C@@H]([C@@]3(C)Cc4cnn(C(C)(C)C)c4C[C@@H]3CO)CC[C@]12C [Ia-12, ((5R,6S)-5-((3aS,4R,5S,7aS)-4-(aminomethyl)-7a-methyl-1-methyleneoctahydro-1H-inden-5-yl)-1-(tert-butyl)-5-methyl-4,5,6,7-tetrahydro-1H-indazol-6-yl)methanol] | 2000 to 6000 | D (a PDR^60 of 0 to 30%) | 
C=C1CC[C@H]2[C@H](CN)[C@@H]([C@@]3(C)Cc4cn(C(C)(C)C)nc4C[C@@H]3CO)CC[C@]12C [Ia-13, ((5R,6S)-5-((3aS,4R,5S,7aS)-4-(aminomethyl)-7a-methyl-1-methyleneoctahydro-1H-inden-5-yl)-2-(tert-butyl)-5-methyl-4,5,6,7-tetrahydro-2H-indazol-6-yl)methanol] | 2000 to 6000 | A (a PDR^60 of 81 to 100%) | 
C=C1CC[C@H]2[C@H](CN)[C@@H]([C@@]3(C)Cc4cnn(C5CCCCC5)c4C[C@@H]3CO)CC[C@]12C [Ia-16, ((5R,6S)-5-((3aS,4R,5S,7aS)-4-(aminomethyl)-7a-methyl-1-methyleneoctahydro-1H-inden-5-yl)-1-cyclohexyl-5-methyl-4,5,6,7-tetrahydro-1H-indazol-6-yl)methanol] | 2000 to 6000 | B (a PDR^60 of 61 to 80%) | 
C=C1CC[C@H]2[C@H](CN)[C@@H]([C@@]3(C)Cc4cn(CC(C)(C)C)nc4C[C@@H]3CO)CC[C@]12C [Ia-23, ((5R,6S)-5-((3aS,4R,5S,7aS)-4-(aminomethyl)-7a-methyl-1-methyleneoctahydro-1H-inden-5-yl)-5-methyl-2-neopentyl-4,5,6,7-tetrahydro-2H-indazol-6-yl)methanol] | 2000 to 6000 |  | 
C[C@]1([C@H]2CC[C@]3(C)C=CC[C@H]3[C@@H]2CN)Cc2cn[nH]c2C[C@@H]1CO [Ia-28, ((5R,6S)-5-((3aR,6S,7R,7aS)-7-(aminomethyl)-3a-methyl-3a,4,5,6,7,7a-hexahydro-1H-inden-6-yl)-5-methyl-4,5,6,7-tetrahydro-1H-indazol-6-yl)methanol] |  | A (a PDR^60 of 81 to 100%) | 
C[C@H]1CC[C@H]2[C@H](CN)[C@@H]([C@@]3(C)Cc4cnn(-c5ccccc5)c4C[C@@H]3CO)CC[C@]12C [Ia-35, ((5R,6S)-5-((1S,3aS,4S,5S,7aR)-4-(aminomethyl)-1,7a-dimethyloctahydro-1H-inden-5-yl)-5-methyl-1-phenyl-4,5,6,7-tetrahydro-1H-indazol-6-yl)methanol] | < 2000 |  | 
C[C@H]1CC[C@H]2[C@H](CN)[C@@H]([C@@]3(C)Cc4cnn(C5CCCCC5)c4C[C@@H]3CO)CC[C@]12C [Ia-37, ((5R,6S)-5-((1S,3aS,4S,5S,7aR)-4-(aminomethyl)-1,7a-dimethyloctahydro-1H-inden-5-yl)-1-cyclohexyl-5-methyl-4,5,6,7-tetrahydro-1H-indazol-6-yl)methanol] | < 2000 |  | 
C[C@H]1CC[C@H]2[C@H](CN)[C@@H]([C@@]3(C)Cc4cnn(CC(C)(C)C)c4C[C@@H]3CO)CC[C@]12C [Ia-38, ((5R,6S)-5-((1S,3aS,4S,5S,7aR)-4-(aminomethyl)-1,7a-dimethyloctahydro-1H-inden-5-yl)-5-methyl-1-neopentyl-4,5,6,7-tetrahydro-1H-indazol-6-yl)methanol] | < 2000 |  | 
C[C@H]1CC[C@H]2[C@H](CN)[C@@H]([C@@]3(C)Cc4cnn(C(C)(C)C)c4C[C@@H]3CO)CC[C@]12C [Ia-40, ((5R,6S)-5-((1S,3aS,4S,5S,7aR)-4-(aminomethyl)-1,7a-dimethyloctahydro-1H-inden-5-yl)-1-(tert-butyl)-5-methyl-4,5,6,7-tetrahydro-1H-indazol-6-yl)methanol] | 2000 to 6000 |  | 
C[C@H]1CC[C@H]2[C@H](CN)[C@@H]([C@@]3(C)Cc4cnn(-c5ccccn5)c4C[C@@H]3CO)CC[C@]12C [Ia-42, ((5R,6S)-5-((1S,3aS,4S,5S,7aR)-4-(aminomethyl)-1,7a-dimethyloctahydro-1H-inden-5-yl)-5-methyl-1-(pyridin-2-yl)-4,5,6,7-tetrahydro-1H-indazol-6-yl)methanol] | < 2000 |  | 
C[C@H]1CC[C@H]2[C@H](CN)[C@@H]([C@@]3(C)Cc4cn(-c5ccccn5)nc4C[C@@H]3CO)CC[C@]12C [Ia-43, ((5R,6S)-5-((1S,3aS,4S,5S,7aR)-4-(aminomethyl)-1,7a-dimethyloctahydro-1H-inden-5-yl)-5-methyl-2-(pyridin-2-yl)-4,5,6,7-tetrahydro-2H-indazol-6-yl)methanol] | < 2000 |  | 
CC(C)CCC[C@@H](C)[C@H]1CC[C@H]2[C@H](CN)[C@@H]([C@@]3(C)Cc4cn[nH]c4C[C@@H]3CN)CC[C@]12C [Ia-57, ((1R,3aS,4S,5S,7aR)-5-((5R,6S)-6-(aminomethyl)-5-methyl-4,5,6,7-tetrahydro-1H-indazol-5-yl)-7a-methyl-1-((R)-6-methylheptan-2-yl)octahydro-1H-inden-4-yl)methanamine] |  | A (a PDR^60 of 81 to 100%) | 
C=C1CC[C@H]2[C@H](CN)[C@@H]([C@@]3(C)Cc4cn[nH]c4C[C@@H]3CN)CC[C@]12C [Ia-58, ((3aS,4R,5S,7aS)-5-((5R,6S)-6-(aminomethyl)-5-methyl-4,5,6,7-tetrahydro-1H-indazol-5-yl)-7a-methyl-1-methyleneoctahydro-1H-inden-4-yl)methanamine] |  | A (a PDR^60 of 81 to 100%) | 
CCCCNc1ccc(C(=O)OCCN(C)C)cc1 [tetracaine, reference compound] |  |  | EC50 (Rat DRG; Rat DRG excitability, read-out: Average response by the standard compound): 4050 nM
